Data: ChEMBL document CHEMBL5143525, “N-methylated diazabicyclo[3.2.2]nonane substituted triterpenoic acids are excellent, hyperbolic and selective inhibitors for butyrylcholinesterase” (Eur J Med Chem, 2022)
Activity calls are given as the source filed them. The rule behind the calls is not given here.

Target: Cholinesterase (Equus caballus) (UniProt P81908)
Test: Mixed type inhibition of equine serum BuChE by Dixon plot analysis

Sequence of Cholinesterase (Equus caballus) (P81908 whole entry): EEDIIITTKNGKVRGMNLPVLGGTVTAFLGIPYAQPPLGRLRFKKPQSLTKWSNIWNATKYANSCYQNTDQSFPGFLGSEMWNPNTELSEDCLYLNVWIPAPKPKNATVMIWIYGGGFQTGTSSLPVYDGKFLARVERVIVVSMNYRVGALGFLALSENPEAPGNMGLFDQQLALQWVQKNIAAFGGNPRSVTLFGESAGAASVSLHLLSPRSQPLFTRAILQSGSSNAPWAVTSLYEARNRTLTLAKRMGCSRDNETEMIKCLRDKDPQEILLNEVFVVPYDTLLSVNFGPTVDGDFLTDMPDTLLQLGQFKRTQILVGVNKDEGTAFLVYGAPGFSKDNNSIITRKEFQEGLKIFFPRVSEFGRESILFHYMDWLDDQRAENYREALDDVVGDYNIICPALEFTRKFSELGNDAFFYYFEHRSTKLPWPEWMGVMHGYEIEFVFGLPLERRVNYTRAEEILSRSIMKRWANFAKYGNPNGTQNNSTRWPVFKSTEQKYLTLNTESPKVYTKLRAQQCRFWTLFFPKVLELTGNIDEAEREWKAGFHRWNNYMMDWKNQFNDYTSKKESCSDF

SMILES	inhibition mechanism
CC(=O)O[C@H]1CC[C@]2(C)[C@H]3CC=C4[C@@H]5CC(C)(C)CC[C@]5(C(=O)N5CC6CC[N+](C)(CC6)C5)CC[C@@]4(C)[C@]3(C)CC[C@H]2C1(C)C	Active
CC(=O)O[C@H]1CC[C@]2(C)[C@H]3CC[C@H]4[C@@H]5[C@H](C(C)=O)CC[C@]5(C(=O)N5CC6CC[N+](C)(CC6)C5)CC[C@@]4(C)[C@]3(C)CC[C@H]2C1(C)C	Active
CC(=O)O[C@H]1CC[C@]2(C)[C@H]3C(=O)C[C@H]4[C@@H]5C[C@@](C)(C(=O)N6CC7CC[N+](C)(CC7)C6)CC[C@]5(C)CC[C@@]4(C)[C@]3(C)CC[C@H]2C1(C)C	Active
CC(=O)O[C@H]1CC[C@]2(C)[C@H]3CC=C4[C@@H]5[C@@H](C)[C@H](C)CC[C@]5(C(=O)N5CC6CC[N+](C)(CC6)C5)CC[C@@]4(C)[C@]3(C)CC[C@H]2C1(C)C	Active
C=C(C)[C@@H]1CC[C@]2(C(=O)N3CC4CC[N+](C)(CC4)C3)CC[C@]3(C)[C@@H](CC[C@@H]4[C@@]5(C)CC[C@H](OC(C)=O)C(C)(C)[C@@H]5CC[C@]43C)[C@H]12	Active
